From US20260138969A1 (Korea Research Institute of Chemical Technology, priority 2023, published 2026)

Tests used:
[1] = system: PC12 cells; test: Neuronal protective efficacy against MPP+ (MTT); assay type: cell-based; details: Rattus norvegicus, PC-12, MPP 2 mM, Control = 100, read-out: cell viability (AVE); for viability at 0.1 µM: compound 0.1 μM; for viability at 0.3 µM: compound 0.3 μM; for viability at 1 µM: compound 1 μM
Method: The neuronal toxicity substances 6-OHDA (6-hydroxydopamine hydrobromide) and MPP+ (1-methyl-4-phenylpyridinium) were purchased from Sigma-Aldrich (Saint Louis, MO, USA) and made into 100 mM DMSO stock. PC12 cells were seeded on 96-well plates with 4 pieces of 1×10 per well and incubated for one day. The cells were pretreated with each concentration of embodied compound for 1 h. Subsequently, 40 μM 6-OHDA and 2 mM MPP^+ were added and incubated for 24 hours, respectively. Subsequently, cell viability was measured using MTT (Invitrogen, MA, USA).

[2] = system: α-Syn transgenic Parkinson's disease mouse model; test: α-Syn transgenic Parkinson's disease mouse model: step error (beam test); assay type: in vivo; details: at 7 and 9 months; Memantine 10 mg/kg, Example 3 2/10/50 mg/kg, Example 2 2 mg/kg PO QD; vs G2
Method: The test drug was administered once daily (QD) via oral administration (PO) with a solution of 5 ml/kg for 5 months from 4 months to 9 months of age. Motor behavior tests (beam test) and neurological scores (modified Irwin test) were performed at 4 months (before administration), 7 months, and 9 months. After the final behavioral test, tissue samples were taken. Weight was measured on the same day once a week from 4 months of age until the end of the study.
The procedure described by Fleming et al. (J Neurosci, 24:9434-40, 2004) was adopted as the beam test (Challenging Beam Traversal). Exercise capacity was measured with a new beam test that was a modification of the existing beam walking test. The beam is made of Plexiglas and consists of four sections (each 25 cm and a total length of 1 m), each with a different width. The beam is designed to start at 3.5 cm wide and gradually narrow in increments of 0.5 cm×1 cm. A shelf 1 cm wide was placed 1.0 cm below the top surface of the beam.
The mouse was trained to cross the length of the beam, starting from the widest section and ending with the narrowest and most difficult section. The narrow end of the beam is designed to connect directly to the mouse's house cage. The mice were trained for two days before testing, and all training was carried out without a mesh grid. On the first day, two auxiliary exercises were performed, in which the mouse was placed on a beam and the home cage was placed close to the mouse. This induces it to move forward along the beam. […]
The error was counted if the limb (front or hind leg) passed through the grid during forward movement and was visible between the grid and the beam surface. […] Error was measured by scoring each limb slippage individually. For example, a mouse with three limbs slipping off the grid in one step was rated with an error score of 3 points, while a mouse with only one limb slipped off the grid in one step was evaluated with an error score of 1 in that step. […] The number of step errors and the time it took to cross were measured and averaged in all five experiments.

[3] = system: CDAHFD-induced non-alcoholic steatohepatitis mouse model; test: CDAHFD-induced non-alcoholic steatohepatitis mouse model: liver fibrosis (Picrosirius red); assay type: in vivo; details: for Picrosirius red staining area in the liver: Selonsertib 30 mg/kg, Example 3 10 and 30 mg/kg, Example 2 10 and 30 mg/kg PO QD, CDAHFD diet 4 and 8 weeks
Method: Creation of CDAHFD-induced NASH model and drug administration were carried out by dividing C57BL/6 male mice at 3 weeks of age into 7 groups as shown in Table 16 below. The control group (G1) was fed standard feed and water. Groups G2 to G7 were fed the CDAHFD (Research Diet Inc, #A06071302) diet for 4 and 8 weeks.
Picrosirius red staining was used for histological visualization of collagen fibers. Histopathology analysis evaluated the efficacy of improving liver fibrosis.
For mice in each group, three sections of the liver fixed with 4% PFA (paraformaldehyde) were prepared with paraffin blocks. Paraffin blocks were sectioned to a thickness of 5 μm (Histocore AUTOCUT R, Leica Microsystems, Germany) and the sections were mounted on silane-coated slides (MUTO, JPN) and stored until staining.
Xylene was used to remove paraffin from the slides, and the slides were moisturized and washed. The slides were stained with a solution of Picrosirius red (ab150681, Abcam, UK) and washed off with a solution of acetic acid. The slides were fitted after dehydration and cleaning using alcohol and xylene. For each section, two images of different areas were taken using a microscope (Axioscan7, ZEISS, Germany). The fibrotic area was measured using image J software compared to the total area. FIGS. 23a and 23b are graphs and images of Picrosirius red stained area ratios in the liver of a CDAHFD-induced mouse model of nonalcoholic steatohepatitis.

Row | SMILES | viability at 0.1 µM [1] [%] | viability at 0.3 µM [1] [%] | viability at 1 µM [1] [%] | number of step errors (beam test) [2] | efficacy in improving liver fibrosis (Picrosirius red) ([3]; 30 mg/kg PO QD, after 4 weeks of the CDAHFD diet) | Picrosirius red staining area in the liver [3]
1 | Cc1cc(F)c(C(=O)Nc2cccc(-n3nnc4c3CCC4)n2)cc1-n1cnc(C2CC2)c1 [Example 2, 5-(4-cyclopropyl-1H-imidazole-1-yl)-N-(6-(5,6-dihydrocyclopenta[d][1,2,3]triazole-1 (4H)-yl)pyridine-2-yl)-2-fluoro-4-methylbenzamide] | 83.9 | 91.7 | 92.4 | significant reduction in the number of step errors compared to Group G2 | most improved efficacy | significantly reduced
2 | Cc1cc(F)c(C(=O)Nc2cccc(-n3nnc4c3CCCC4)n2)cc1-n1cnc(C2CC2)c1 [Example 3, 5-(4-cyclopropyl-1H-imidazole-1-yl)-2-fluoro-4-methyl-N-(6-(4,5,6,7-tetrahydro-1H-benzo[d][1,2,3]triazole-1-yl)pyridine-2-yl)benzamide] | 87.4 | 87.6 | 89.9 | significant reduction in the number of step errors compared to Group G2 | – | significantly reduced
